From ChEMBL document CHEMBL1201862, “PubChem BioAssay data set” (2004)
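Grown in 96-well plates, cells were treated for 48 hours with each compound at five concentrations. Insufficient inhibition: endpoint recorded as highest concentration tested. The concentration for 50% growth inhibition is given as GI50.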 Active and inactive are the calls of the source. Rule as the data show it: active = GI50 up to about 1.1 µM and inactive = higher.

Key:
Assay in all cases: inhibition of tumour cell growth, NCI panel, 48 h
SF-268 = system: SF-268
HOP-62 = system: HOP-62
SK-MEL-5 = system: SK-MEL-5
UO-31 = system: UO-31
EKVX = system: EKVX
K562 = system: K562
ACHN = system: ACHN
CCRF-CEM = system: CCRF-CEM
OVCAR-5 = system: OVCAR-5
UACC-257 = system: UACC-257
SF-295 = system: SF-295
IGROV-1 = system: IGROV-1
SN12C = system: SN12C
786-0 = system: 786-0
OVCAR-8 = system: OVCAR-8
NCI-H23 = system: NCI-H23
TK-10 = system: TK-10
RPMI-8226 = system: RPMI-8226
RXF 393 = system: RXF 393

Measured: GI50

COc1ccc(C=C2C(=O)OC(C)(C)OC2=O)cc1OC
inactive: SF-268 > 100 µM | HOP-62 > 100 µM | SK-MEL-5 > 100 µM | UO-31 > 100 µM | EKVX > 100 µM | K562 > 100 µM | ACHN > 100 µM | CCRF-CEM > 100 µM | OVCAR-5 > 100 µM | UACC-257 > 100 µM | SF-295 > 100 µM | IGROV-1 > 100 µM | SN12C > 100 µM | 786-0 > 100 µM | OVCAR-8 > 100 µM | NCI-H23 > 100 µM | TK-10 > 100 µM | RPMI-8226 > 100 µM

Cc1ccc(NC(=O)C(=O)Cc2nc3ccccc3o2)c(C)c1
inactive: SF-268 > 100 µM | HOP-62 > 100 µM | UO-31 > 100 µM | EKVX > 100 µM | K562 > 100 µM | ACHN > 100 µM | OVCAR-5 > 100 µM | UACC-257 > 100 µM | RXF 393 > 100 µM | SF-295 > 100 µM | IGROV-1 > 100 µM | SN12C > 100 µM | 786-0 > 100 µM | OVCAR-8 > 100 µM | NCI-H23 > 100 µM | TK-10 > 100 µM | RPMI-8226 > 100 µM

O=[PH](O)c1ccsc1
inactive: SF-268 > 100 µM | HOP-62 > 100 µM | SK-MEL-5 > 100 µM | UO-31 > 100 µM | EKVX > 100 µM | K562 > 100 µM | ACHN > 100 µM | CCRF-CEM > 100 µM | RXF 393 > 100 µM | IGROV-1 > 100 µM | SN12C > 100 µM | 786-0 > 100 µM | OVCAR-8 > 100 µM | NCI-H23 > 100 µM | TK-10 > 100 µM | RPMI-8226 > 100 µM

COc1ccc(/C=C/CN(C)CCc2ccccc2)cc1OC
inactive: SF-268 > 100 µM | SK-MEL-5 59.2 µM | UO-31 22.9 µM | EKVX > 100 µM | K562 26.5 µM | ACHN > 100 µM | OVCAR-5 41.1 µM | UACC-257 36.1 µM | RXF 393 51.2 µM | SF-295 53.5 µM | IGROV-1 > 100 µM | SN12C 66.1 µM | 786-0 > 100 µM | OVCAR-8 > 100 µM | NCI-H23 > 100 µM | TK-10 46 µM | RPMI-8226 59.3 µM

O=C(CCc1n[nH]c(=S)o1)Nc1cc(Cl)c(Cl)cc1Cl
inactive: SF-268 26.5 µM | HOP-62 50.8 µM | SK-MEL-5 50.9 µM | UO-31 68.2 µM | EKVX 36.9 µM | K562 18.9 µM | ACHN 40.5 µM | CCRF-CEM 31.6 µM | OVCAR-5 54.3 µM | UACC-257 > 100 µM | SF-295 > 100 µM | IGROV-1 34.6 µM | SN12C > 100 µM | 786-0 22.5 µM | OVCAR-8 51.2 µM | NCI-H23 > 100 µM | TK-10 42.5 µM | RPMI-8226 20.5 µM

O=C1CCC2CCc3cccc4oc1c2c34 (stereo not drawn)
inactive: HOP-62 > 100 µM | SK-MEL-5 > 100 µM | EKVX 74.1 µM | K562 > 100 µM | ACHN > 100 µM | CCRF-CEM > 100 µM | UACC-257 > 100 µM | RXF 393 > 100 µM | SF-295 10.6 µM | IGROV-1 > 100 µM | SN12C > 100 µM | 786-0 > 100 µM | OVCAR-8 > 100 µM | NCI-H23 > 100 µM | TK-10 > 100 µM | RPMI-8226 > 100 µM

N#Cc1ccc(/C=N/NC(=O)CSCC(=O)N/N=C/c2ccc(C#N)cc2)cc1
inactive: SF-268 > 100 µM | HOP-62 > 100 µM | SK-MEL-5 > 100 µM | UO-31 > 100 µM | EKVX > 100 µM | K562 > 100 µM | ACHN > 100 µM | OVCAR-5 > 100 µM | UACC-257 > 100 µM | RXF 393 > 100 µM | SF-295 > 100 µM | IGROV-1 > 100 µM | SN12C > 100 µM | 786-0 > 100 µM | OVCAR-8 53.1 µM | NCI-H23 > 100 µM | TK-10 56 µM | RPMI-8226 > 100 µM

COCCNC(=O)C1C(=O)C(=O)N(CCOC)C1=O (stereo not drawn)
inactive: SF-268 > 100 µM | HOP-62 > 100 µM | SK-MEL-5 > 100 µM | UO-31 > 100 µM | EKVX > 100 µM | K562 > 100 µM | ACHN > 100 µM | CCRF-CEM > 100 µM | OVCAR-5 > 100 µM | UACC-257 > 100 µM | RXF 393 > 100 µM | SF-295 > 100 µM | IGROV-1 > 100 µM | SN12C > 100 µM | 786-0 > 100 µM | OVCAR-8 > 100 µM | NCI-H23 > 100 µM | TK-10 > 100 µM
